In US20220143183A1, “PHOTOSWITCHABLE PROTACS AND SYNTHESIS AND USES THEREOF” (New York University, priority 2019, published 2022):
“Also recorded” adds a separate entry of the source.

Legend:
Type in all cases: cell-based, human
RS4;11 lymphoblast cells = experiment: Cell viability assay (Promega MTS), dark or pulsed irradiation; details: 72 h; for EC50: Homo sapiens
Experimental: Optical control of BRD2-4 with PHOTACs. To assess the biological activity of the PHOTACs, their effect on the viability of RS4;11 lymphoblast cells was tested. Cells were treated in a 96-well plate with increasing concentrations of PHOTACs and were either irradiated with 390 nm light pulses (100 ms every 10 s) for 72 h or incubated with the compound in the dark. Subsequently, cell viability assays (Promega MTS) were performed, as previously described.
Cell culture. The human acute lymphoblastic leukemia RS4;11 (ATCC® CRL-1873™) cell line was purchased from the American Type Culture Collection and cultured in RPMI1640 medium (Gibco) with 10% fetal bovine serum (FBS) and 1% penicillin/streptomycin (PS) in a humidified incubator at 37° C. with 5% CO2 in air. Cells were divided every 2-3 days and the concentration was maintained between 1×10^5 and 1×10^6 cells/mL. For the experiments compounds were serially diluted in RPMI160 without the dye phenol red (Gibco) to reduce the influence of the dye by absorption. Azobenzene stocks and dilutions were strictly kept in the dark and prepared under red light conditions.
Colorimetric MTT Assays. The activity of dehydrogenase enzymes in metabolically active cells, as a quantitative measurement for cytotoxicity and proliferation, was determined by colorimetric measurement of the reduction of [3-(4,5-dimethylthiazol-2-yl)-5-(3-carboxymethoxyphenyl)-2-(4-sulfophenyl)-2H-tetrazolium (MTS) to formazan. The absorbance of formazan at 490 nm was measured on a FLUOstar Omega microplate reader (BMG Labtech).
Cells were treated with different concentrations, ranging from 10 μM to 1 nM, of our compounds and incubated on a 96-well plate for 72 h. They were placed in light-proof boxes and exposed to the lighting conditions specified in the experiment for 72 h. Next, 10 μL of Promega CellTiter 96® AQueous One Solution Reagent was added to each well and incubated for further 4-7 hours. The absorbance at 490 nm was then recorded with a 96-well plate reader.
LED illumination. For illumination of the cells we used the cell disco system as previously described in the literature^[25]. 390 nm 5 mm LEDs were purchased from Roithner Lasertechnik. Cells were preirradiated for 1 min at 390 nm, followed by 100 ms pulses every 10 s in 96- or 6-well plates.

BRD2-4 = experiment: Western blot of BET proteins in RS4;11 cells, results stated for BRD2-4 together
Experimental: Next, the light dependence of targeted protein degradation was analyzed in RS4;11 cells by western blot analysis of the BET proteins BRD2-4 (FIG. 5). To this end, cells were treated with increasing concentrations of our lead compound, PHOTAC-I-3, for 4 h and pulse-irradiated with 390 nm light (100 ms every 10 s). […] The cereblon-dependent degradation was confirmed by a competition experiment (FIG. 5E), and further validated by siRNA knockdown of cereblon (FIG. 13).
(§1) The slight effect on c-MYC can be explained by inhibition of BRD4 with the (+)-JQ1 derivative PHOTAC-I-3 in the absence of targeted degradation.
(§2) Cells were incubated with different concentrations of selected compounds. They were placed in a light-proof box and preirradiated for 1 min at 390 nm followed by 100 ms pulses every 10 s or were kept in the dark for 4 h.
Cultured cells were collected by centrifugation and washed twice with cold PBS. The supernatant was removed and each cell pellet was lysed in 100 μL NP40-Cell-Lysis Buffer+0.1% SDS+1 mM PMSF+ protease inhibitor cocktail (Sigma Aldrich) for 30 min on ice, with vortexing at 10-minute intervals. Afterwards, cells were centrifuged at 13.000 rpm for 10 min at 4° C. Samples were stored on ice and the supernatant was collected for protein concentration determination using a Thermofisher Scientific Pierce™ Coomassie Plus (Bradford) Assay Kit. […]

c-MYC = experiment: Immunoblot of c-MYC levels in RS4;11 cells
Experimental: Photoactivatable degraders and inhibitors of BRD4, c-MYC levels were also affected.
as §1
Western Immunoblot Analysis. Rabbit monoclonal Antibodies for BRD4 (#13440), β-Actin (#4970) c-Myc (#5605) and Anti-rabbit IgG, HRP-linked Antibody (#7074) were purchased from Cell Signalling Technologies.
as §2
Cultured cells were collected by centrifugation and washed twice with cold PBS. The supernatant was removed and each cell pellet was lysed in 100 μL NP40-Cell-Lysis Buffer+0.1% SDS+1 mM PMSF+ protease inhibitor cocktail (Sigma Aldrich) for 30 min on ice, with vortexing at 10-minute intervals. Afterwards, cells were centrifuged at 13.000 rpm for 10 min at 4° C. Samples were stored on ice and the supernatant was collected for protein concentration determination using a Thermofisher Scientific Pierce™ Coomassie Plus (Bradford) Assay Kit.
The samples were diluted each with 5 μL Laemmli sample buffer Invitrogen (NuPAGE LDS Sample Buffer 4×) and 1 μL DTT, heated at 95° C. for 5 min. […]

Q: For `COc1cc(/N=N/c2cccc3c2CN(C2CCC(=O)NC2=O)C3=O)cc(OC)c1OCC(=O)NCCCCNC(=O)C[C@@H]1N=C(c2ccc(Cl)cc2)c2c(sc(C)c2C)-n2c(C)nnc21` (stereo partly drawn) [PHOTAC-I-3, 2-((S)-4-(4-chlorophenyl)-2,3,9-trimethyl-6H-thieno[3,2-f][1,2,4]triazolo[4,3-a][1,4]diazepin-6-yl)-N-(4-(2-(4-((E)-(2-(2,6-dioxopiperidin-3-yl)-1-oxoisoindolin-4-yl)diazenyl)-2,6-dimethoxyphenoxy)acetamido)butyl)acetamide], which “EC50 difference dark vs 390 nM” value (RS4;11 lymphoblast cells) is on record?
A: 7.1 fold

Q: And the “light dependence of activity in viability assay” value (RS4;11 lymphoblast cells; dark vs pulsed 390 nm irradiation)?
A: largest difference between light and dark activity

Q: What about the EC50 (RS4;11 lymphoblast cells; RS4-11, light or radiation study, irradiated with 390 nm light pulses (100 ms every 10 s)) of the same molecule?
A: 88.5 nM

Q: What about the EC50 (RS4;11 lymphoblast cells; RS4-11, in the dark) of the same molecule?
A: 631 nM

Q: What about the “BRD2-4 levels with CRL inhibitor MLN4924” value (BRD2-4; 1 μM together with MLN4924 (2.5 μM), 390 nm irradiation) of the same molecule?
A: rescued BRD2-4 levels

Q: What about the “BRD levels in the dark, time course” value (BRD2-4; 1 μM, in the dark) of the same molecule?
A: no effect on BRD levels

Q: What about the c-MYC downregulation (c-MYC; 390 nm pulse irradiation) of the same molecule?
A: more pronounced when cells were pulse-irradiated; also recorded: c-MYC downregulation over 24 hours

Q: And the c-MYC levels (c-MYC; in the dark)?
A: relatively little effect on c-MYC levels
